Structures can show the parent of a compound that is named as a salt.
Key:
[1] = Evaluation of a conversion rate to 2-acetylnaphtho[2,3-b]furan-4,9-dione in human plasma; assay type: in vitro ADME; settings: Human plasma, 1 umol/L, 37° C., incubation time 120 min
Experimental: (§1) For test compounds, the decrease rate of the test compounds and the conversion rate thereof to 2-acetylnaphtho[2,3-b]furan-4,9-dione in human plasma, CD1 mouse plasma, and pH 7.4 phosphate buffer solution were measured.
(§2) Test compounds were incubated at the concentration of 1 umol/L in human plasma (cat. no. 12250210, COSMO BIO), CD1 mouse plasma (cat. no. AP3054, KAC), and phosphate buffer solution at 37° C., and removed at predetermined times (0, 5, 10, 30, 60, and 120 minutes). After protein-removing treatment was performed, they are analyzed with LC-MS. It should be noted that the protein-removing treatment used acetonitrile containing: 10% volume of 1 mol/L hydrochloric acid; 1% volume of 46% citric acid; and phenytoin as an internal standard.
(§3) The measurement condition of LC-MS is as described below. LC-MS condition column: Kinetex 2.6 u PFP 100 A 50×2.1 mm Column temperature: 40° C.
(§4) Mobile phase: A: 0.1% formic acid-containing water
(§5) • B: 0.1% formic acid-containing acetonitrile A/B(min): 95/5(0)→5/95(3)→5/95(4)→95/5(4.1)→95/5(6) Flow rate: 0.4 mL/min Detection: ESI (positive mode) Injection volume: 10 uL
In the same way as Example 6, the incubation time was set as 120 minutes later, and the conversion rate of each of various test compounds to 2-acetylnaphtho[2,3-b]furan-4,9-dione in human plasma, CD1 mouse plasma, and pH 7.4 phosphate buffer solution was measured.

[2] = Evaluation of a conversion rate to 2-acetylnaphtho[2,3-b]furan-4,9-dione in pH 7.4 phosphate buffer solution; assay type: physicochemical; settings: Phosphate buffer solution (pH 7.4), 1 umol/L, 37° C., incubation time 120 min
Experimental: as §1, §2, §3, §4, §5
Measurement values are calculated from the peak area ratio in LC-MS between an internal standard material, phenytoin and an active form, 2-acetylnaphtho[2,3-b]furan-4,9-dione, and are expressed in %.
In the same way as Example 6, the incubation time was set as 120 minutes later, and the conversion rate of each of various test compounds to 2-acetylnaphtho[2,3-b]furan-4,9-dione in human plasma, CD1 mouse plasma, and pH 7.4 phosphate buffer solution was measured. A series of the present compounds were confirmed to be converted to 2-acetylnaphtho[2,3-b]furan-4,9-dione in pH 7.4 phosphate buffer solution in addition to human plasma and CD1 mouse plasma. Therefore, a series of the test compounds of the present invention were confirmed to be converted to the activated form via a route other than an enzymatic conversion.

Solubility test = settings: 50 mmol/L glycine buffer solution (pH 2.0), room temperature, 24 hours shaking
Experimental: A water-soluble prodrug was added into 50 mmol/L glycine buffer solution (pH 2.0). After shaking at room temperature for 24 hours, the mixture was filtered through a membrane filter, and then the filtrate was measured with HPLC.
The measurement condition of HPLC is as described below. HPLC condition column: Acquity UPLC BEH C18, 1.7 um, 50×2.1 mm
Mobile phase: A: 0.1% trifluoroacetic acid-containing water

SMILES	% Measurement value (conversion rate to 2-acetylnaphtho[2,3-b]furan-4,9-dione) [1]	% Measurement value (conversion rate to 2-acetylnaphtho[2,3-b]furan-4,9-dione) [2]	Solubility in pH 2.0 buffer solution (Solubility test)
CC(=O)c1cc2c(OC(=O)NCCNCCCC(=O)O)c3ccccc3c(OC(=O)NCCNCCCC(=O)O)c2o1.Cl.Cl [Example 42]	69%	54%	>5.0 mg/mL
CC(=O)c1cc2c(OC(=O)NCCNCCF)c3ccccc3c(OC(=O)NCCNCCF)c2o1.Cl.Cl [Example 43]	81%	63%	>5.0 mg/mL
CC(=O)c1cc2c(OC(=O)NCCNCC(F)(F)F)c3ccccc3c(OC(=O)NCCNCC(F)(F)F)c2o1.Cl.Cl [Example 45]	84%	48%	>5.0 mg/mL
CC(=O)c1cc2c(OC(=O)NCCNCCN)c3ccccc3c(OC(=O)NCCNCCN)c2o1.Cl.Cl [Example 46]	59%	54%	>5.0 mg/mL
COC(=O)CNCCCNC(=O)Oc1c2ccccc2c(OC(=O)NCCCNCC(=O)OC)c2oc(C(C)=O)cc12.Cl.Cl [Example 47]	92%	65%	>5.0 mg/mL
CC(=O)c1cc2c(OC(=O)NC3CCNC3)c3ccccc3c(OC(=O)NC3CCNC3)c2o1.Cl.Cl (centres unmarked) [Example 48]	71%	59%	>5.0 mg/mL
CC(=O)c1cc2c(OC(=O)NC3CCCNC3)c3ccccc3c(OC(=O)NC3CCCNC3)c2o1.Cl.Cl (centres unmarked) [Example 49]	77%	58%	>5.0 mg/mL
CC(=O)c1cc2c(OC(=O)NCCNC(C)C(=O)O)c3ccccc3c(OC(=O)NCCNC(C)C(=O)O)c2o1.Cl.Cl (centres unmarked) [Example 50]	96%	61%	0.1 mg/mL
CCC(NCCNC(=O)Oc1c2ccccc2c(OC(=O)NCCNC(CC)C(=O)O)c2oc(C(C)=O)cc12)C(=O)O.Cl.Cl (centres unmarked) [Example 51]	70%	55%	0.1 mg/mL
CC(=O)c1cc2c(OC(=O)NCCCNCCN)c3ccccc3c(OC(=O)NCCCNCCN)c2o1.Cl.Cl [Example 52]	78%	55%	>5.0 mg/mL
CC(=O)c1cc2c(OC(=O)NCCCNCC(F)(F)F)c3ccccc3c(OC(=O)NCCCNCC(F)(F)F)c2o1.Cl.Cl [Example 53]	100%	41%	>5.0 mg/mL
CC(=O)c1cc2c(OC(=O)NCCNCc3ccccc3)c3ccccc3c(OC(=O)NCCNCc3ccccc3)c2o1.Cl.Cl [Example 55]	86%	63%	>5.0 mg/mL
COC(=O)[C@@H](N)CCNC(=O)Oc1c2ccccc2c(OC(=O)NCC[C@H](N)C(=O)OC)c2oc(C(C)=O)cc12 [Example 108, Dimethyl 4,4′-((((2-acetylnaphtho[2,3-b]furan-4,9-diyl)bis(oxy))bis(carbonyl))bis(azanediyl))(2S,2′S)-bis(2-aminobutanoate)ditrifluoroacetate salt]		44%	>5.0 mg/mL
